# Data: US20130101628A1 (NORTHWESTERN UNIVERSITY, priority 2011, published 2013)
# Key:
# [1] = molecular target: T1, VEGF receptor 1 (VEGFR1 or Flt-1) (Homo sapiens, UniProt P17948); test: Sandwich ELISA of phosphorylated VEGFR1 in lysates of stimulated HUVEC; assay type: cell-based; conditions: HUVEC, native VEGF 100 ng/ml positive control, 2 minutes exposure
# T1 construct: host or cells: HUVEC
# Protocol: (§1) Human umbilical vein endothelial cells (HUVECs) and complete endothelial cell growth media (EGM) were purchased (Genlantis, San Diego, Calif.), passaged two times following receipt, and cryo-preserved in media with 5% DMSO. Cells were thawed as needed and grown to confluence in a […] flasks (VWR Falcon) prior to plating for experiments.
# (§2) Phosphorylation of both VEGFRI and VEGFR2 was assayed using commercially available assay kit (R&D Systems, Minneapolis, Minn.) following the recommended protocol. First, confluent HUVECs plated in 24 well plates were starved for 5 hours in serum-free defined media (SFDM, Genlantis) specifically designed to maintain cells in a growth factor-free setting for growth factor signaling and metabolic assays. Following starvation, the various treatments were dissolved in SFDM to a concentration of 1 μM. […] Cells were exposed to treatment for 2 minutes. To evaluate the time-course of phosphorylation the same protocol was followed and cells were exposed to VEGF-PA for 0, 1, 3, 5, 10, 15, 20, 25, 30, 40, 50, and 60 minutes.
# [2] = molecular target: T2, VEGF receptor 2 (VEGFR2 or KDR) (Homo sapiens, UniProt P35968); test: Sandwich ELISA of phosphorylated VEGFR2 in lysates of stimulated HUVEC; assay type: cell-based
# T2 construct: host or cells: HUVEC
# T2 sequence (P35968 20-1356): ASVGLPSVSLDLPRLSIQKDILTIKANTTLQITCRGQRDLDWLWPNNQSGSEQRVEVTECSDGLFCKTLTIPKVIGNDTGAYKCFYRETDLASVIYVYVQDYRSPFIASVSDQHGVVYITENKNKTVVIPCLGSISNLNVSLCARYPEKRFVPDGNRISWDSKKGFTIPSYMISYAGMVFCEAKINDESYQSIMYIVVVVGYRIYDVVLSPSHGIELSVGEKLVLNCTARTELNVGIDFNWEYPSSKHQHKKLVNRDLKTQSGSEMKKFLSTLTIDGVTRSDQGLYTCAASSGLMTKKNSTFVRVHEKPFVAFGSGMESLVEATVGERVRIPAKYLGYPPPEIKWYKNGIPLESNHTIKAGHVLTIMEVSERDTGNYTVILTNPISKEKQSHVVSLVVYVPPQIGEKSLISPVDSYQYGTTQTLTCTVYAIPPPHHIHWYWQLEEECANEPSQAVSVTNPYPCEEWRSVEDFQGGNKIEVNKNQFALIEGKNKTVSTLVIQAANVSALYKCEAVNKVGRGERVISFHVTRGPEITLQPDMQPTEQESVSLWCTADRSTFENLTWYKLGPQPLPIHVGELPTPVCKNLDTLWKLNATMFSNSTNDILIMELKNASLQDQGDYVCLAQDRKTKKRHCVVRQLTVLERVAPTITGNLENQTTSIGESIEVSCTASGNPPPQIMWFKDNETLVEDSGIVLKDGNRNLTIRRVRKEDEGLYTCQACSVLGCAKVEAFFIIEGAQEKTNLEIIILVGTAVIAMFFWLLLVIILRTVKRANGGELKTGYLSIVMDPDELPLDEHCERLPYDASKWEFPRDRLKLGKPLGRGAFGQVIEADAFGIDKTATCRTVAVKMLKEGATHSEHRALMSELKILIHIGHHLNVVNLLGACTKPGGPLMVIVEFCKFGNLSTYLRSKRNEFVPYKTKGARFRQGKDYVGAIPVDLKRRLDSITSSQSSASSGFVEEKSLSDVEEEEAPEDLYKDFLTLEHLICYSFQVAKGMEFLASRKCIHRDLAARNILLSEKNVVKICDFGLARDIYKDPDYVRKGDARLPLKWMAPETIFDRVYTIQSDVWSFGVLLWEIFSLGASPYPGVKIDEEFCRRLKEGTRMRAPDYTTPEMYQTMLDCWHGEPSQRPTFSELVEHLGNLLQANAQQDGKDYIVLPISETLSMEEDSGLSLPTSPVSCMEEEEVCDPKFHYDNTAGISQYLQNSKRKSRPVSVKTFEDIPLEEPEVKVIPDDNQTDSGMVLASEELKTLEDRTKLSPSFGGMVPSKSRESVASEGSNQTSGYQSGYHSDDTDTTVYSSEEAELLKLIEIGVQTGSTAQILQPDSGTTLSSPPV
# Protocol: as §1, §2
# T1 sequence (P17948 27-1338): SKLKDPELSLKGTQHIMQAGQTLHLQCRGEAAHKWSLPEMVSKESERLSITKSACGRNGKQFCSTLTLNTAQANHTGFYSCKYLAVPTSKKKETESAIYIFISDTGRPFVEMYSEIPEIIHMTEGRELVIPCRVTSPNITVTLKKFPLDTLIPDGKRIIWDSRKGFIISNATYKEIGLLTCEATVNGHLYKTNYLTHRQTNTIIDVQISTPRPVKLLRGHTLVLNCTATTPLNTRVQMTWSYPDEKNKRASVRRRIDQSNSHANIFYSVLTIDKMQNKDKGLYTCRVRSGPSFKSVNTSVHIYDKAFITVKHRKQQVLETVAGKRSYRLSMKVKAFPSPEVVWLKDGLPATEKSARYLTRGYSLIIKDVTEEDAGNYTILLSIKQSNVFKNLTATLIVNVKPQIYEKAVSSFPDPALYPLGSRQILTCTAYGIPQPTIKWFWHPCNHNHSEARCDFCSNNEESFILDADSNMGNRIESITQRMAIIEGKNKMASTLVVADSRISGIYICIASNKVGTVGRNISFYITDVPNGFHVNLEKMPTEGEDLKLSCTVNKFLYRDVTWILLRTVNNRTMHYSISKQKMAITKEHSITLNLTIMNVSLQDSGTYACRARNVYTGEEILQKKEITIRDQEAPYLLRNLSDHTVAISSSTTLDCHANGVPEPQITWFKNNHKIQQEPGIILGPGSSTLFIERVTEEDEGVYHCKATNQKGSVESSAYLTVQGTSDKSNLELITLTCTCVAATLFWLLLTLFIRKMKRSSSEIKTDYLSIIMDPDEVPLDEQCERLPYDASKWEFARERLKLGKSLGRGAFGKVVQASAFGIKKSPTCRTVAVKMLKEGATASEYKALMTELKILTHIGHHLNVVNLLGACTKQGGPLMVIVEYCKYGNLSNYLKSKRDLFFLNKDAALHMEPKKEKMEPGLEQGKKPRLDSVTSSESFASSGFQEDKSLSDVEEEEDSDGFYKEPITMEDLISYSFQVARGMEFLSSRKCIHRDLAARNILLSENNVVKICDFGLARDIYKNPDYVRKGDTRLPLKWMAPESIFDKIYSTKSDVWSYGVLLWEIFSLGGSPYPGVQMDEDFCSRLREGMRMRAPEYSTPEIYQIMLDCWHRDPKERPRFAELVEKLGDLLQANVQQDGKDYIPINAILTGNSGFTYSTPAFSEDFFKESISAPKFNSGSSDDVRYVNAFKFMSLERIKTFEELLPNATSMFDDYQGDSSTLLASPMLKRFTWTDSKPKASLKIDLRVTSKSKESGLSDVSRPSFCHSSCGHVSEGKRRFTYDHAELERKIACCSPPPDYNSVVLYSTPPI
substance,measurement,setting,value
VEGF,"amount of phosphorylated VEGFR1, times untreated control",[1],1.306±0.044
same,VEGFR2 phosphorylation level relative to untreated control,[2],1.311±0.106
